Laboratory results published in patent US6914045B2, “Glycopeptide antibiotics” (Wyeth Holdings Corporation, priority 2001, dated 2005).
Values after ≈ are worked out from the molar mass of the structure shown.

How the values were obtained:
Assay in all cases: in vitro antibacterial evaluation, MIC by broth dilution
Format in all cases: cell-based
Escherichia coli = conditions: 18 hours at 35° C.
Procedure, shortened: (§1)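 Broth dilution per NCCLS standard M7-A2 in Muller-Hinton II […], with an inoculum of 5×10^5 CFU/mL and antibiotic spanning 64-0.06 μg/mL. The MIC is the lowest concentration that inhibits growth of the organism.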

Streptococcus sp. = conditions: broth dilution, 18 hours at 35° C.
Procedure, shortened: as §1

Enterococcus sp. = conditions: broth dilution, 18 hours at 35° C.
Procedure, shortened: as §1

Staphylococcus sp. = conditions: broth dilution, 18 hours at 35° C.
Procedure, shortened: as §1

In the case of `CC(c1ccccc1)C1NC(=O)CNC(=O)C(CO)NC(=O)C(C(O)C2CNC(=N)N2C2OC(CO)C(O)C(O)C2O)NC(=O)C(C(O)C2CNC(=N)N2)NC(=O)C(Cc2ccc(OC3OC(CO)C(OC4OC5COC(c6cccc(O)c6)OC5C(O)C4O)C(O)C3O)cc2)NC1=O` (stereo not drawn) [Example 136, Cyclo[glycyl-β-methylphenylalanyl-O-[4-O-[4,6-O-(3-hydroxybenzylidene)hexopyranosyl]-hexopyranosyl]tyrosyl-3-(2-iminoimidazolidin-4-yl)seryl-3-(3-hexopyranosyl-2-iminoimidazolidin-4-yl)serylseryl]], the “MIC Escherichia coli (ATCC 25922)” value (Escherichia coli; strain ATCC 25922) is reported as greater than 64 mg/L, the “MIC Escherichia coli (GC 4559)” value (Escherichia coli; strain GC 4559) is reported as greater than 64 mg/L and the “MIC Escherichia coli (GC 4560)” value (Escherichia coli; strain GC 4560) is reported as 4 mg/L (≈ 2.86 µM). The “MIC Streptococcus agalactiae (GC 4564)” value (Streptococcus sp.; Streptococcus agalactiae (GC 4564)) was 8 mg/L (≈ 5.72 µM), the “MIC Streptococcus pneumoniae (ATCC 6301)” value (Streptococcus sp.; Streptococcus pneumoniae (ATCC 6301)) was 2 mg/L (≈ 1.43 µM) and the “MIC Streptococcus pneumoniae (GC 1894)” value (Streptococcus sp.; Streptococcus pneumoniae (GC 1894)) was 1 mg/L (≈ 0.715 µM). For the same compound, the “MIC Streptococcus pneumoniae (GC 4565)” value (Streptococcus sp.; Streptococcus pneumoniae (GC 4565)) was 4 mg/L (≈ 2.86 µM), the “MIC Streptococcus pyogenes (GC 4563)” value (Streptococcus sp.; Streptococcus pyogenes (GC 4563)) was 8 mg/L (≈ 5.72 µM) and the “MIC Streptococcus pneumoniae (ATCC 6301)” value (Streptococcus sp.; strain ATCC 6301) was 2 mg/L (≈ 1.43 µM). For the same compound, the “MIC Streptococcus pneumoniae (GC 1894)” value (Streptococcus sp.; strain GC 1894) was 1 mg/L (≈ 0.715 µM), the “MIC Streptococcus pyogenes (GC 4563)” value (Streptococcus sp.; strain GC 4563) was 8 mg/L (≈ 5.72 µM) and the “MIC Streptococcus agalactiae (GC 4564)” value (Streptococcus sp.; strain GC 4564) was 8 mg/L (≈ 5.72 µM). For the same compound, the “MIC Streptococcus pneumoniae (GC 4565)” value (Streptococcus sp.; strain GC 4565) was 4 mg/L (≈ 2.86 µM), the “MIC Enterococcus avium (GC 4558)” value (Enterococcus sp.; Enterococcus avium (GC 4558)) was 64 mg/L (≈ 45.7 µM) and the “MIC Enterococcus faecalis (ATCC 29212)” value (Enterococcus sp.; Enterococcus faecalis (ATCC 29212)) was greater than 64 mg/L. The “MIC Enterococcus faecalis (GC 2242)” value (Enterococcus sp.; Enterococcus faecalis (GC 2242)) was 64 mg/L (≈ 45.7 µM), the “MIC Enterococcus faecalis (GC 2691)” value (Enterococcus sp.; Enterococcus faecalis (GC 2691)) was greater than 64 mg/L and the “MIC Enterococcus faecalis (GC 3059)” value (Enterococcus sp.; Enterococcus faecalis (GC 3059)) was greater than 64 mg/L. The “MIC Enterococcus faecalis (GC 4552)” value (Enterococcus sp.; Enterococcus faecalis (GC 4552)) was greater than 64 mg/L, the “MIC Enterococcus faecalis (GC 4553)” value (Enterococcus sp.; Enterococcus faecalis (GC 4553)) was greater than 64 mg/L and the “MIC Enterococcus faecalis (GC 4554)” value (Enterococcus sp.; Enterococcus faecalis (GC 4554)) was greater than 64 mg/L. The “MIC Enterococcus faecalis (GC 6189)” value (Enterococcus sp.; Enterococcus faecalis (GC 6189)) was 64 mg/L (≈ 45.7 µM), the “MIC Enterococcus faecium (GC 2243)” value (Enterococcus sp.; Enterococcus faecium (GC 2243)) was greater than 64 mg/L and the “MIC Enterococcus faecium (GC 4556)” value (Enterococcus sp.; Enterococcus faecium (GC 4556)) was 64 mg/L (≈ 45.7 µM). The “MIC Enterococcus faecium (GC 4557)” value (Enterococcus sp.; Enterococcus faecium (GC 4557)) was 8 mg/L (≈ 5.72 µM), the “MIC Enterococcus faecalis (ATCC 29212)” value (Enterococcus sp.; strain ATCC 29212) was greater than 64 mg/L and the “MIC Enterococcus faecalis (GC 2242)” value (Enterococcus sp.; strain GC 2242) was 64 mg/L (≈ 45.7 µM). For the same compound, the “MIC Enterococcus faecium (GC 2243)” value (Enterococcus sp.; strain GC 2243) was greater than 64 mg/L, the “MIC Enterococcus faecalis (GC 2691)” value (Enterococcus sp.; strain GC 2691) was greater than 64 mg/L and the “MIC Enterococcus faecalis (GC 3059)” value (Enterococcus sp.; strain GC 3059) was greater than 64 mg/L. For the same compound, the “MIC Enterococcus faecalis (GC 4552)” value (Enterococcus sp.; strain GC 4552) was greater than 64 mg/L, the “MIC Enterococcus faecalis (GC 4553)” value (Enterococcus sp.; strain GC 4553) was greater than 64 mg/L and the “MIC Enterococcus faecalis (GC 4554)” value (Enterococcus sp.; strain GC 4554) was greater than 64 mg/L. The “MIC Enterococcus faecium (GC 4556)” value (Enterococcus sp.; strain GC 4556) was 64 mg/L (≈ 45.7 µM), the “MIC Enterococcus faecium (GC 4557)” value (Enterococcus sp.; strain GC 4557) was 8 mg/L (≈ 5.72 µM) and the “MIC Enterococcus avium (GC 4558)” value (Enterococcus sp.; strain GC 4558) was 64 mg/L (≈ 45.7 µM). The “MIC Enterococcus faecalis (GC 6189)” value (Enterococcus sp.; strain GC 6189) was 64 mg/L (≈ 45.7 µM), the “MIC Staphylococcus aureus (ATCC 29213)” value (Staphylococcus sp.) was 16 mg/L (≈ 11.4 µM) and the “MIC Staphylococcus aureus (GC 1131)” value (Staphylococcus sp.) was 16 mg/L (≈ 11.4 µM). For the same compound, the “MIC Staphylococcus aureus (GC 3051)” value (Staphylococcus sp.) was 16 mg/L (≈ 11.4 µM), the “MIC Staphylococcus aureus (GC 3053)” value (Staphylococcus sp.) was 32 mg/L (≈ 22.9 µM) and the “MIC Staphylococcus aureus (GC 4541)” value (Staphylococcus sp.) was 8 mg/L (≈ 5.72 µM). The “MIC Staphylococcus aureus (GC 4542)” value (Staphylococcus sp.) was 16 mg/L (≈ 11.4 µM), the “MIC Staphylococcus aureus (GC 4544)” value (Staphylococcus sp.) was 16 mg/L (≈ 11.4 µM) and the “MIC Staphylococcus aureus (GC 4545)” value (Staphylococcus sp.) was 16 mg/L (≈ 11.4 µM). The “MIC Staphylococcus aureus (GC 1131)” value (Staphylococcus sp.; inoculum 5×10^5 CFU/mL, strain GC 1131) was 16 mg/L (≈ 11.4 µM), the “MIC Staphylococcus aureus (ATCC 29213)” value (Staphylococcus sp.; strain ATCC 29213) was 16 mg/L (≈ 11.4 µM) and the “MIC Staphylococcus aureus (GC 3051)” value (Staphylococcus sp.; strain GC 3051) was 16 mg/L (≈ 11.4 µM). For the same compound, the “MIC Staphylococcus aureus (GC 3053)” value (Staphylococcus sp.; strain GC 3053) was 32 mg/L (≈ 22.9 µM), the “MIC Staphylococcus aureus (GC 4541)” value (Staphylococcus sp.; strain GC 4541) was 8 mg/L (≈ 5.72 µM) and the “MIC Staphylococcus aureus (GC 4542)” value (Staphylococcus sp.; strain GC 4542) was 16 mg/L (≈ 11.4 µM). The “MIC Staphylococcus aureus-SMITH (GC 4543)” value (Staphylococcus sp.; strain GC 4543) was 16 mg/L (≈ 11.4 µM), the “MIC Staphylococcus aureus (GC 4544)” value (Staphylococcus sp.; strain GC 4544) was 16 mg/L (≈ 11.4 µM) and the “MIC Staphylococcus aureus (GC 4545)” value (Staphylococcus sp.; strain GC 4545) was 16 mg/L (≈ 11.4 µM). The “MIC Staphylococcus haemolyticus (GC 4546)” value (Staphylococcus sp.; strain GC 4546) was 16 mg/L (≈ 11.4 µM), the “MIC Coagulase Negative Staphylococcus (GC 4547)” value (Staphylococcus sp.; strain GC 4547) was 8 mg/L (≈ 5.72 µM) and the “MIC Coagulase Negative Staphylococcus (GC 4548)” value (Staphylococcus sp.; strain GC 4548) was 8 mg/L (≈ 5.72 µM). The “MIC Coagulase Negative Staphylococcus (GC 4549)” value (Staphylococcus sp.; strain GC 4549) was 4 mg/L (≈ 2.86 µM), the “MIC Coagulase Negative Staphylococcus (GC 4551)” value (Staphylococcus sp.; strain GC 4551) was 32 mg/L (≈ 22.9 µM) and the “MIC Coagulase Negative Staphylococcus (GC 6257)” value (Staphylococcus sp.; strain GC 6257) was 4 mg/L (≈ 2.86 µM). The “MIC Staphylococcus aureus-SMITH (GC 4543)” value (Staphylococcus sp.; strain SMITH GC 4543) was 16 mg/L (≈ 11.4 µM).
